Legend:
CHIKV = experiment: microbe, parasite or virus in culture; format: cell-based, chikungunya virus; settings: Chikungunya virus, HEK293; HEK-293 cells pretreated with dilutions of each drug, CHIKV-GFP, 18 h p.i.
HEK-293 cells = experiment: Cell viability, Cell Proliferation Reagent WST-1; format: cell-based, human; settings: Homo sapiens, HEK293, 18 h, read-out: WST-1 IC50
Description: To exclude the possible cytotoxic effects, all compounds were additionally tested using the ‘Cell Proliferation Reagent WST-1' (Roche Diagnostics). HEK-293 cells were treated with the same concentrations of the various substances and 18 h later WST-1 was added. Readout was conducted using the EnVision Multilabel Reader (PerkinElmer).

CHIKV C21 [1] = experiment: Quantitative RT-PCR of cell- and supernatant-associated vRNA; format: cell-based, chikungunya virus; settings: HeLa
CHIKV C21 [2] = format: in vivo, C57BL/6 mice; settings: adult mice pretreated at least 3 days (pimozide 20 mg kg−1 per os; TOFA 25 mg kg−1 i.p.), 18 h p.i.
[3] = test system: herpes simplex type 1 strain KOS (HSV-1); format: cell-based, herpes simplex virus 1; settings: HEK-293 cells pretreated 2 h, Fig. 4
HeLa cells = experiment: Cell viability, CellTiter-Glo kit; settings: end of the 1 h infection + 7 h treatment experiment
CHIKV C21 [4] = experiment: Intradermal CHIKV infection model of neonatal mice; settings: neonatal mice
[5] = CHIKV C21 MOI 50 for 1 h, then drug 7 h: cerulenin 50 μM, TOFA 25 μM, pimozide 10 μM, W7 20 μM, tivozanib 5 μM
[6] = CHIKV-infected, drugs from 6 to 8 h p.i.

**Q.** For `O=c1[nH]c2ccccc2n1C1CCN(CCCC(c2ccc(F)cc2)c2ccc(F)cc2)CC1` [Pimozide], which IC50 (CHIKV) is on record?
**A.** 0.28 µM

**Q.** And the IC50 (HEK-293 cells)?
**A.** 19.2 µM

**Q.** What about the “vRNA synthesis (cell-associated vRNA)” value (CHIKV C21 [1]; [5]) of the same compound?
**A.** significantly reduced vRNA synthesis

**Q.** What about the “viral release in the supernatants (supernatant-associated vRNA)” value (CHIKV C21 [1]; [5]) of the same compound?
**A.** strongly inhibited viral release

**Q.** What about the “vRNA replication, delayed treatment” value (CHIKV C21 [1]; [6]) of the same compound?
**A.** only a minor impact on vRNA replication

**Q.** And the “viral release, delayed treatment” value (CHIKV C21 [1]; [6])?
**A.** major defect in viral release

**Q.** And the “CHIKV titres in the footpad (replication)” value (CHIKV C21 [2])?
**A.** significantly reduced replication

**Q.** What about the “antiviral effect on HSV-1” value [3] of the same compound?
**A.** antiviral effect

**Q.** What about the cell toxicity (HeLa cells) of the same compound?
**A.** no detectable cell toxicity

**Q.** What about the “impact on mouse growth” value (CHIKV C21 [4]) of the same compound?
**A.** detectable impact on mouse growth

Reference: publication PMC4865845, “A human genome-wide loss-of-function screen identifies effective chikungunya antiviral drugs” (Nature Communications, 2016)
